Measured values as given in ChEMBL document CHEMBL4507298 (2021).

Experiments:
[1] = molecular target: Endothelin-1 receptor (Homo sapiens) (UniProt P25101); assay: ETA (h) CEREP ligand profiling; details: Compound concentration 10.0 uM
[2] = molecular target: STE20-like serine/threonine-protein kinase (Homo sapiens) (UniProt Q9H2G2); details: Compound concentration 1000.0 nM
[3] = molecular target: Sodium-dependent serotonin transporter (Homo sapiens) (UniProt P31645); assay: 5-HT transporter (h) CEREP ligand profiling; details: Compound concentration 10.0 uM
Sodium-dependent serotonin transporter (Homo sapiens), sequence (P31645 whole entry, looked up): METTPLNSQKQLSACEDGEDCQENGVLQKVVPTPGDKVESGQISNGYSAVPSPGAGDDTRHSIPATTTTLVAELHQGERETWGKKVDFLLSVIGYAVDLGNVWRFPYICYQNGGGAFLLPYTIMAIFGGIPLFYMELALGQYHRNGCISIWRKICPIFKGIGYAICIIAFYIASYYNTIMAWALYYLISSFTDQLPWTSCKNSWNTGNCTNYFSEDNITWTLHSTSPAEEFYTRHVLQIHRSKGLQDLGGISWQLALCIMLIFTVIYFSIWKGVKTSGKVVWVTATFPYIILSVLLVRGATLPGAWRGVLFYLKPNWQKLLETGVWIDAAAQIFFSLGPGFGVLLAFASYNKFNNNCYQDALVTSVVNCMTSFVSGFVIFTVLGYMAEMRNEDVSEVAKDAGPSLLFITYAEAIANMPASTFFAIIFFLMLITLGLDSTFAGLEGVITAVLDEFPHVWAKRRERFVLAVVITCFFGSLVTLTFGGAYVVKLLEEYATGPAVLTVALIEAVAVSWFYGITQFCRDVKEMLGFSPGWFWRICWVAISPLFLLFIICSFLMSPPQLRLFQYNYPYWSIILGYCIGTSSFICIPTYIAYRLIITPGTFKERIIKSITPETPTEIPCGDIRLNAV

[4] = molecular target: Serine/threonine-protein kinase WNK4 (Homo sapiens) (UniProt Q96J92); details: Compound concentration 1000.0 nM
CYP2D6 = CYP2D6 (Homo sapiens, UniProt P10635); assay: CYP2D6 inhibition CEREP ligand profiling; details: compound concentration 10 uM
[5] = test system: Leucine-rich repeat serine/threonine-protein kinase 2 (Homo sapiens), Q5S007 [G2019S]; details: Compound concentration 1000.0 nM
[6] = molecular target: Casein kinase I isoform epsilon (Homo sapiens) (UniProt P49674); details: Compound concentration 1000.0 nM
[7] = molecular target: NT-3 growth factor receptor (Homo sapiens) (UniProt Q16288); details: Compound concentration 1000.0 nM
CYP3A4 = CYP3A4 (Homo sapiens, UniProt P08684); assay: CYP3A4 inhibition CEREP ligand profiling; details: compound concentration 10 uM
[8] = molecular target: Calcium/calmodulin-dependent protein kinase kinase 2 (Homo sapiens) (UniProt Q96RR4); details: Compound concentration 1000.0 nM
Calcium/calmodulin-dependent protein kinase kinase 2 (Homo sapiens), sequence (Q96RR4 2-588 limits assumed): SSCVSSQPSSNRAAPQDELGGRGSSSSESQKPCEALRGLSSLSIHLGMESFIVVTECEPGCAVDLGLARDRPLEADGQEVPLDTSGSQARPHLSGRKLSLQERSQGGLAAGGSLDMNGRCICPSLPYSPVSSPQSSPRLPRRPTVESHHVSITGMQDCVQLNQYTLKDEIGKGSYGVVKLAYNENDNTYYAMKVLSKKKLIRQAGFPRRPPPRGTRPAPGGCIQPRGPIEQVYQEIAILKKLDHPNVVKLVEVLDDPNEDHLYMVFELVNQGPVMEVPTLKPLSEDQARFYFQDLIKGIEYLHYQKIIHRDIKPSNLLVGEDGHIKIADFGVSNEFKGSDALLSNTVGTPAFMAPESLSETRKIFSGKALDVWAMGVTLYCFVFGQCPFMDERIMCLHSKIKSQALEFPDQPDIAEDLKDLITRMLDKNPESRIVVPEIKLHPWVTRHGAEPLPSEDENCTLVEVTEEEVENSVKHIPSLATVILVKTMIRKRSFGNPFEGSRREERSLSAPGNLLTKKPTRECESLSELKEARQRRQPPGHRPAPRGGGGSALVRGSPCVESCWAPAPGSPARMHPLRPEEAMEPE

[9] = molecular target: Leukotriene B4 receptor 1 (Homo sapiens, UniProt Q15722); assay: LTB4 (h) (BLT1) CEREP ligand profiling
Leukotriene B4 receptor 1, sequence (Q15722 whole entry): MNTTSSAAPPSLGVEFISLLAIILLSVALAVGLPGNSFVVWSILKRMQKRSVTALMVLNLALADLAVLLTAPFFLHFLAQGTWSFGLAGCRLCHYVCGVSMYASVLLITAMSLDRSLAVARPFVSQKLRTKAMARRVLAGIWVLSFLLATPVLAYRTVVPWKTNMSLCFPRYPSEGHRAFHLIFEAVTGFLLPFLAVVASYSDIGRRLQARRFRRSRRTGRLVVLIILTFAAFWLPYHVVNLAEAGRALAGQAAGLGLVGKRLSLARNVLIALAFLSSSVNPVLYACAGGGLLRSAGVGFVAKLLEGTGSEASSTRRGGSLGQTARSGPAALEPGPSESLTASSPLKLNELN

Prostacyclin receptor = Prostacyclin receptor (Homo sapiens, UniProt P43119); assay: Binding assay (PTGIR)
[10] = molecular target: Motilin receptor (Homo sapiens) (UniProt O43193); assay: Motilin (h) CEREP ligand profiling; details: Compound concentration 10.0 uM
[11] = molecular target: T1, Alpha-2C adrenergic receptor (Homo sapiens) (UniProt P18825); assay: alpha 2C (h) CEREP ligand profiling; details: Compound concentration 10.0 uM
T1 sequence (whole entry): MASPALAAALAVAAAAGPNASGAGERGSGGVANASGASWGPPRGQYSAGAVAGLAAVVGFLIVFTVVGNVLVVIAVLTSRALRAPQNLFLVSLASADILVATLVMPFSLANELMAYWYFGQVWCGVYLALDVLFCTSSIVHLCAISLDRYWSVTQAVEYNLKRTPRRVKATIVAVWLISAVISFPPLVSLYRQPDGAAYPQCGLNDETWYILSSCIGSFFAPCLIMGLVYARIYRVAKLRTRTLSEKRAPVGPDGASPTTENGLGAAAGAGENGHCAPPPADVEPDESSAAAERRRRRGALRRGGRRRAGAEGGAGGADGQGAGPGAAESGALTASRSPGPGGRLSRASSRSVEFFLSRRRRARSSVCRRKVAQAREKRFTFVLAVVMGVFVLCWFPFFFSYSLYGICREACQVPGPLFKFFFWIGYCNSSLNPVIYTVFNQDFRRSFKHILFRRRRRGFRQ

[12] = molecular target: Acetylcholine receptor, muscle-type, subunit alpha-1 (Homo sapiens) (UniProt P02708); assay: N (muscle-type) (h) CEREP ligand profiling; details: Compound concentration 10.0 uM
[13] = molecular target: Transient receptor potential cation channel subfamily M member 6 (Homo sapiens) (UniProt Q9BX84); details: Compound concentration 1000.0 nM
[14] = molecular target: Phosphodiesterase 6 (Homo sapiens) (UniProt Q13956+P18545+P35913+O43924+P16499+P51160); assay: PDE6 CEREP ligand profiling; format: protein assay; details: Compound concentration 10.0 uM
CYP2C19 = CYP2C19 (Homo sapiens, UniProt P33261); assay: CYP2C19 inhibition CEREP ligand profiling; details: compound concentration 10 uM
CYP2C19, sequence (P33261 whole entry): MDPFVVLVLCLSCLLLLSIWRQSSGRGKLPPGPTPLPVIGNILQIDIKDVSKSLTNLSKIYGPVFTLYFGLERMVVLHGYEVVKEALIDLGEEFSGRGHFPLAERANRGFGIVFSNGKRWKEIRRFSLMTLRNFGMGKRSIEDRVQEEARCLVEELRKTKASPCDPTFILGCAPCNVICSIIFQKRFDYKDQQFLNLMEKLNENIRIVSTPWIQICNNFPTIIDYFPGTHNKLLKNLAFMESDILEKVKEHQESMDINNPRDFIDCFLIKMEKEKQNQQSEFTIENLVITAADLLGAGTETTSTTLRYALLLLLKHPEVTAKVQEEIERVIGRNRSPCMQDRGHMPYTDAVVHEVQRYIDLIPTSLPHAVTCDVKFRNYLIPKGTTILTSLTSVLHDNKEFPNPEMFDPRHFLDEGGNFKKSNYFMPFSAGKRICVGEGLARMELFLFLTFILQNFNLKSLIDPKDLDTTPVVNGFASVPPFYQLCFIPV

[15] = molecular target: Mitogen-activated protein kinase 14 (Homo sapiens) (UniProt Q16539); assay: p38 alpha kinase (h) CEREP ligand profiling; details: Compound concentration 10.0 uM
[16] = molecular target: Serine/threonine-protein kinase Chk2 (Homo sapiens) (UniProt O96017); details: Compound concentration 1000.0 nM
[17] = molecular target: Dual specificity mitogen-activated protein kinase kinase 5 (Homo sapiens) (UniProt Q13163); details: Compound concentration 1000.0 nM
Dual specificity mitogen-activated protein kinase kinase 5 (Homo sapiens), sequence (Q13163 whole entry): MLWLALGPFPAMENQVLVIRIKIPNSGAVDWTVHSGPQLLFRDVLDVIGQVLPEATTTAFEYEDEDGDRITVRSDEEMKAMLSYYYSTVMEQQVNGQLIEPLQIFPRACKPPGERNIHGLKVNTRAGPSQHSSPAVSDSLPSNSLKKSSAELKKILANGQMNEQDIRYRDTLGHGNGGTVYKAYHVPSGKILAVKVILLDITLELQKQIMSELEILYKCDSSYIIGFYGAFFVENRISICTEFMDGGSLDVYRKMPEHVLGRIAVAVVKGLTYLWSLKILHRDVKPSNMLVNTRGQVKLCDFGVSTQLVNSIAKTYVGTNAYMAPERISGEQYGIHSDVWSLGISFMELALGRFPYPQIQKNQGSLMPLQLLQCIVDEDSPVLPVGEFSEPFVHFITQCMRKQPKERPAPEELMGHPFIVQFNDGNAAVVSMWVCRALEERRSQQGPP

[18] = molecular target: Melanocortin receptor 4 (Homo sapiens) (UniProt P32245); assay: MC4 (h) CEREP ligand profiling; details: Compound concentration 10.0 uM
Melanocortin receptor 4 (Homo sapiens), sequence (P32245 whole entry): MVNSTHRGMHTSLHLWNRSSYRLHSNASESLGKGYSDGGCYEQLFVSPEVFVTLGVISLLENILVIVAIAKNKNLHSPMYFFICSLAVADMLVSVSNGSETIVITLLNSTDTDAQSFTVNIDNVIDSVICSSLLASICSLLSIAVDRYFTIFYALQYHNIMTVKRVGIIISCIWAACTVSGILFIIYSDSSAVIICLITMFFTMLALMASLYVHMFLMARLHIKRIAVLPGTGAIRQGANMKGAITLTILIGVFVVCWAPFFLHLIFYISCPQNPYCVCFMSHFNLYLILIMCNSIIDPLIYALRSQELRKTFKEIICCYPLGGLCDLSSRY

[19] = molecular target: Interleukin-1 receptor-associated kinase 4 (Homo sapiens) (UniProt Q9NWZ3); details: Compound concentration 1000.0 nM
Interleukin-1 receptor-associated kinase 4 (Homo sapiens), sequence (Q9NWZ3 whole entry): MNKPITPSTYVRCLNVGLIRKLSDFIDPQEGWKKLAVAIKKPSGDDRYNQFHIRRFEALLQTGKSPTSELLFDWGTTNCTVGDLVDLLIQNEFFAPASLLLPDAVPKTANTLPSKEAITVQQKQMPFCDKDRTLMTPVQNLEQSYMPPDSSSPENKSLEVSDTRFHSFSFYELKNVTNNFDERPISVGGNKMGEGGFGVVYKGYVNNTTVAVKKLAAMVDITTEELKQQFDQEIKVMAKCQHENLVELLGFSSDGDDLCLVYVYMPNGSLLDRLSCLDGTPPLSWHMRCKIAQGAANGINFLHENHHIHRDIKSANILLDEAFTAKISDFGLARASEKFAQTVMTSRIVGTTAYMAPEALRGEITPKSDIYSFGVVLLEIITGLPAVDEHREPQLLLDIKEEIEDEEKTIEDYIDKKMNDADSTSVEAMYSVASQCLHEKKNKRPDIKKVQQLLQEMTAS

[20] = molecular target: T2, Muscarinic acetylcholine receptor M5 (Homo sapiens) (UniProt P08912); assay: M5 (h) CEREP ligand profiling; details: Compound concentration 10.0 uM
T2 sequence (whole entry): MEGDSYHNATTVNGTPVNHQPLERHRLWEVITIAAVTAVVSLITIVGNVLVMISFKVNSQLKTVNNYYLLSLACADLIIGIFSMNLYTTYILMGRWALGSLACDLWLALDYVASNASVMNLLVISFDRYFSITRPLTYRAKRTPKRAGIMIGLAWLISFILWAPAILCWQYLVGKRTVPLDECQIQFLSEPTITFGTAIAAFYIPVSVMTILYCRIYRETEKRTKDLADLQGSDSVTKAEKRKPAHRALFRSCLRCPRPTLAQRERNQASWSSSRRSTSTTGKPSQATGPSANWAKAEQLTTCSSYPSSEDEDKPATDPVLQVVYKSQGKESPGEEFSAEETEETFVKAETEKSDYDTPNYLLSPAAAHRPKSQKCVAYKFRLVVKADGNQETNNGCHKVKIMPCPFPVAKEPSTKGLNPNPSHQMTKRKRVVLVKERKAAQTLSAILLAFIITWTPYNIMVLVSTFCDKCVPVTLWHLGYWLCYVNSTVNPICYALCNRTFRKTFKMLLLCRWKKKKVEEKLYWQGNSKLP

[21] = molecular target: Macrophage colony-stimulating factor 1 receptor (Homo sapiens) (UniProt P07333); details: Compound concentration 1000.0 nM
Macrophage colony-stimulating factor 1 receptor (Homo sapiens), sequence (P07333 whole entry): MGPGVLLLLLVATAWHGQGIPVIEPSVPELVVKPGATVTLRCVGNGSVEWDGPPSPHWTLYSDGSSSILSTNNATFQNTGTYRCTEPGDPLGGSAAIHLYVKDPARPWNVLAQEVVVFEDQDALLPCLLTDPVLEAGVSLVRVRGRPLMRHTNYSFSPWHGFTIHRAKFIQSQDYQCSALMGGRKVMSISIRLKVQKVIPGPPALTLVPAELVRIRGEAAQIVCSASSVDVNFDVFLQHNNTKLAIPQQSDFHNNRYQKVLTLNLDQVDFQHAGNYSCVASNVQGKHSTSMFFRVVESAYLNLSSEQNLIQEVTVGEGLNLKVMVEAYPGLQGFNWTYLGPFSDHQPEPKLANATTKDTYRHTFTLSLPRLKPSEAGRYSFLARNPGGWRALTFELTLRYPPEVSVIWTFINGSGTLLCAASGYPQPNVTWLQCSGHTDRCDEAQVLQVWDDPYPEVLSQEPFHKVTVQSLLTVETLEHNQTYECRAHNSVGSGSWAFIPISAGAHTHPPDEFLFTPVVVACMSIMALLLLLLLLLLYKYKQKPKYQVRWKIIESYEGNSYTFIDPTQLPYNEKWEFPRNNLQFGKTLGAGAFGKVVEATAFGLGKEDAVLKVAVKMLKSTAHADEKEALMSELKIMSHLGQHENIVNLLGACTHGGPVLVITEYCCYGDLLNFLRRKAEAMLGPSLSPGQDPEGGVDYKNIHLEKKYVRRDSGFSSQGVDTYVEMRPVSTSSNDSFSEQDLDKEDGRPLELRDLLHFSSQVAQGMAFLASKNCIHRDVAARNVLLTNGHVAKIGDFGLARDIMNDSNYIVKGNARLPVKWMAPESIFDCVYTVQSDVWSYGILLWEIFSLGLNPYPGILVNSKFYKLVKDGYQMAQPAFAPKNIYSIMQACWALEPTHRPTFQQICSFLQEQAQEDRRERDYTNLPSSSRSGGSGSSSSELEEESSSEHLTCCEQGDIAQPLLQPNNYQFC

[22] = molecular target: Cyclin-dependent kinase 2 homolog (Plasmodium falciparum (isolate 3D7)) (UniProt P61075); details: Compound concentration 1000.0 nM
Cyclin-dependent kinase 2 homolog (Plasmodium falciparum (isolate 3D7)), sequence (P61075 whole entry): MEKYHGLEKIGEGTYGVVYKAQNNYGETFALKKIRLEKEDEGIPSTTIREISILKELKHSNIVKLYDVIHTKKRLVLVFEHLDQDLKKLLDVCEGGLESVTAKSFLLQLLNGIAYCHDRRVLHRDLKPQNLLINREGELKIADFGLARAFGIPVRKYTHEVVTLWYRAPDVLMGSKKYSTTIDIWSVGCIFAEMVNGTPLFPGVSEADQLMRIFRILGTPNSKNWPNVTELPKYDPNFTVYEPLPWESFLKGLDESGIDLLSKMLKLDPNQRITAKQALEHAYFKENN

[23] = molecular target: Serine/threonine-protein kinase ULK2 (Homo sapiens) (UniProt Q8IYT8); details: Compound concentration 1000.0 nM
[24] = molecular target: Neuronal acetylcholine receptor; alpha4/beta2 (Homo sapiens) (UniProt P17787+P43681); assay: N (neuronal) (alpha -BGTX-insensitive) (alpha 4 beta 2) CEREP ligand profiling; format: protein-complex assay; details: Compound concentration 10.0 uM
[25] = molecular target: Histamine H2 receptor (Homo sapiens) (UniProt P25021); assay: H2 (h) CEREP ligand profiling; details: Compound concentration 10.0 uM
[26] = molecular target: Endothelin receptor type B (Homo sapiens) (UniProt P24530); assay: ETB (h) CEREP ligand profiling; details: Compound concentration 10.0 uM
[27] = molecular target: Peripheral plasma membrane protein CASK (Homo sapiens) (UniProt O14936); details: Compound concentration 1000.0 nM
[28] = molecular target: Maternal embryonic leucine zipper kinase (Homo sapiens) (UniProt Q14680); details: Compound concentration 1000.0 nM

Endothelin-1 receptor (Homo sapiens), sequence (P25101 whole entry): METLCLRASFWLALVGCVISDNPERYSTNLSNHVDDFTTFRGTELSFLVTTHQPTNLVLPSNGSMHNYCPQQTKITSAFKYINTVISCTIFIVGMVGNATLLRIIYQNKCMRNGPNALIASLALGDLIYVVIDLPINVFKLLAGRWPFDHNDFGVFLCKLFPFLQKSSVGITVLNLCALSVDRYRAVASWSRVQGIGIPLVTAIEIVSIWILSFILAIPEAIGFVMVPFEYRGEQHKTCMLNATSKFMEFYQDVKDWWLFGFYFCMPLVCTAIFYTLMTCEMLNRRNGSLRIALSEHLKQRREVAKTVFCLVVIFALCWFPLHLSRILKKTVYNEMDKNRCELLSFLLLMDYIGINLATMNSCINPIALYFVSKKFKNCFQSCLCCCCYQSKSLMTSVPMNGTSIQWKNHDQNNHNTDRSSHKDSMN

COc1ccc2cc(OCC3(C(=O)O)CN(C(=O)c4ccc(F)cc4)C3)ccc2c1 [PF-04418948]
inhibition [1]: 3% | residual activity [2]: 85% | inhibition [3]: -8% | residual activity [4]: 79% | inhibition at 10 µM (CYP2D6): 18% (not active) | residual activity [5]: 84% | residual activity [6]: 94% | residual activity [7]: 98% | inhibition at 10 µM (CYP3A4): 17% (not active) | residual activity [8]: 94% | IC50 [9]: 9.7 µM | Ki [9]: 4.8 µM | inhibition ([9]; Compound concentration 10.0 uM): 51% | Ki (Prostacyclin receptor): > 10 µM (not active) | inhibition [10]: -5% | inhibition [11]: 4% | inhibition [12]: -10% | residual activity [13]: 98% | inhibition [14]: 3% | inhibition at 10 µM (CYP2C19): 5% (not active) | inhibition [15]: -1% | residual activity [16]: 93% | residual activity [17]: 93% | inhibition [18]: 8% | residual activity [19]: 87% | inhibition [20]: 1% | residual activity [21]: 75% | residual activity [22]: 97% | residual activity [23]: 89% | inhibition [24]: -10% | inhibition [25]: 3% | inhibition [26]: -1% | residual activity [27]: 91% | residual activity [28]: 86%
